Values quoted from earlier work, collected in paper PMC8435859 (Frontiers in Cellular and Infection Microbiology, 2021).

Columns and labels:
[1] = system: hepatitis B virus (HBV); set-up: method as in Abdelwahed A, et al. Chem Biol Interact. 2007; details: at a concentration of 4 microg/ml; library annotation; ref Abdelwahed A, et al. Chem Biol Interact. 2007; cited from earlier work
[2] = system: PGE2 production; set-up: method as in Kim HJ, et al. Arch Pharm Res. 2016 Feb;39(2):231-239.; details: ref Kim HJ, et al. Arch Pharm Res. 2016 Feb;39(2):231-239.; read-out: IC50, inhibitory effect on PGE2 production; cited from earlier work
[3] = system: B16F10 cell; set-up: method as in ref Abe F, Nagao T, Okabe H. Biological & Pharmaceutical Bulletin, 2002, 25(7):920-922; details: ref Abe F, Nagao T, Okabe H. Biological & Pharmaceutical Bulletin, 2002, 25(7):920-922, read-out: GI50 against B16F10 cell; cited from earlier work
[4] = target: lipase; set-up: method as in Tao J, et al. Zhongguo Zhong Yao Za Zhi. 2011; details: vendor library annotation, ref Tao J, et al. Zhongguo Zhong Yao Za Zhi. 2011, read-out: IC5 (lipase inhibitory activity); cited from earlier work
[5] = system: T. castaneum adults; set-up: method as in Tao J, et al. Zhongguo Zhong Yao Za Zhi. 2011; details: vendor library annotation, ref Tao J, et al. Zhongguo Zhong Yao Za Zhi. 2011; cited from earlier work
[6] = system: T. castaneum adults; set-up: method as in Tao J, et al. Zhongguo Zhong Yao Za Zhi. 2011; details: 0.63 μg/cm, vendor library annotation, ref Tao J, et al. Zhongguo Zhong Yao Za Zhi. 2011; cited from earlier work
[7] = target: β-secretase (BACE1); set-up: method as in Murakami, A., et al. Carcinogenesis 21(10), 1843-1850 (2000); details: ref Murakami, A., et al. Carcinogenesis 21(10), 1843-1850 (2000); cited from earlier work
[8] = system: TRPA1; set-up: method as in López-Jiménez et al., European Journal of Nutrition, 2013; details: library annotation; ref López-Jiménez et al., European Journal of Nutrition, 2013; read-out: agonist of TRPA1, EC5 value; cited from earlier work
[9] = system: STAT3; set-up: method as in Shin DS, et al. Cancer Res, 2009, 69(1), 193-202; details: cell-free assay; ref Shin DS, et al. Cancer Res, 2009, 69(1), 193-202; cited from earlier work
[10] = system: STAT1; set-up: method as in Shin DS, et al. Cancer Res, 2009, 69(1), 193-202; details: ref Shin DS, et al. Cancer Res, 2009, 69(1), 193-202; cited from earlier work
[11] = system: STAT5; set-up: method as in Shin DS, et al. Cancer Res, 2009, 69(1), 193-202; details: ref Shin DS, et al. Cancer Res, 2009, 69(1), 193-202; cited from earlier work
[12] = target: tyrosinase; set-up: method as in Boissy RE, et al. Exp Dermatol, 2005, 14(8), 601-608; details: reversible inhibition; ref Boissy RE, et al. Exp Dermatol, 2005, 14(8), 601-608; cited from earlier work
[13] = target: aldose reductase; details: recombinant human aldose reductase; library annotation; ref Huang H et al., Journal of Agricultural and Food Chemistry, 2011; read-out: inhibition of recombinant human aldose reductase, IC5 value; cited from earlier work
[14] = system: PGE2 release; set-up: method as in ref Huang H et al., Journal of Agricultural and Food Chemistry, 2011; details: library annotation; ref Huang H et al., Journal of Agricultural and Food Chemistry, 2011; cited from earlier work
[15] = system: seed germination; set-up: method as in Kim T K, Park K S. Cytokine, 2015, 76(2); details: at 3 mM concentration; ref Kim T K, Park K S. Cytokine, 2015, 76(2); cited from earlier work
[16] = system: cyclin-dependent kinases; details: read-out: IC50, cyclin-dependent kinases; ref Hoessel R, et al. Nat Cell Biol, 1999, 1(1), 60-67; cited from earlier work
[17] = system: GSK-3β; details: read-out: IC50, GSK-3β; ref Hoessel R, et al. Nat Cell Biol, 1999, 1(1), 60-67; cited from earlier work
[18] = system: PTP1B; set-up: method as in Xu F, Yang L, Huang X, et al. Mol Divers.; details: ref Xu F, Yang L, Huang X, et al. Mol Divers.; read-out: IC50, PTP1B inhibition; cited from earlier work
[19] = system: TNF-α; set-up: method as in ref Singh B, et al. Natural Product Research, 2013, 27(23):2227-2230.; details: anti-inflammatory activity; ref Singh B, et al. Natural Product Research, 2013, 27(23):2227-2230.; read-out: IC50, inhibition of TNF-α; cited from earlier work
[20] = system: IL-1β; set-up: method as in ref Singh B, et al. Natural Product Research, 2013, 27(23):2227-2230.; details: anti-inflammatory activity; ref Singh B, et al. Natural Product Research, 2013, 27(23):2227-2230.; read-out: IC50, inhibition of IL-1β; cited from earlier work
[21] = system: fatty acid synthase; set-up: method as in Tian, WX. Current Medicinal Chemistry, 2006, 13 (8): 967–977; details: ref Tian, WX. Current Medicinal Chemistry, 2006, 13 (8): 967–977; cited from earlier work
[22] = system: nuclear factor of activated T cells (NFAT) transcription factor; set-up: method as in Phan, C., et al. Biofactors, 2016; details: vendor library annotation, ref Phan, C., et al. Biofactors, 2016; cited from earlier work
[23] = target: 6-phosphogluconate dehydrogenase; set-up: method as in Ma X, et al. Pest Manag Sci, 2010, 66(7), 718-724; details: ref Ma X, et al. Pest Manag Sci, 2010, 66(7), 718-724; cited from earlier work
[24] = target: 6-phosphogluconate dehydrogenase; set-up: method as in Ma X, et al. Pest Manag Sci, 2010, 66(7), 718-724; details: ref Ma X, et al. Pest Manag Sci, 2010, 66(7), 718-724; cited from earlier work; remark: listed apart in the source
[25] = system: HeLa cells; set-up: method as in Wu ZT, et al. Acta Pharmacol Sin. 2014 Sep;35(9):1188-98; details: ref Wu ZT, et al. Acta Pharmacol Sin. 2014 Sep;35(9):1188-98, read-out: IC50, autophagy followed by apoptotic cell death; cited from earlier work
[26] = system: BT474 cells; set-up: method as in Wu ZT, et al. Acta Pharmacol Sin. 2014 Sep;35(9):1188-98; details: ref Wu ZT, et al. Acta Pharmacol Sin. 2014 Sep;35(9):1188-98, read-out: IC50, cellular response via inhibition of mTORC1 and induction of ER stress; cited from earlier work
[27] = system: MDAMB231; set-up: method as in Wu ZT, et al. Acta Pharmacol Sin. 2014 Sep;35(9):1188-98; details: ref Wu ZT, et al. Acta Pharmacol Sin. 2014 Sep;35(9):1188-98, read-out: IC50, cellular response via inhibition of mTORC1 and induction of ER stress; cited from earlier work
[28] = system: cytochrome P450 1A1; set-up: method as in Jo SP, Kim JK, Lim YH. Planta Med. 2014 Aug;80(13):1067-71; details: mechanism-based, selective inactivator; ref Jo SP, Kim JK, Lim YH. Planta Med. 2014 Aug;80(13):1067-71; read-out: IC50, cytochrome P450 1A1 inactivation; cited from earlier work
[29] = system: HL-60R; set-up: method as in Jo SP, Kim JK, Lim YH. Planta Med. 2014 Aug;80(13):1067-71; details: HL-60R cancer cell line; ref Jo SP, Kim JK, Lim YH. Planta Med. 2014 Aug;80(13):1067-71; read-out: IC50, proliferation of HL-60R; cited from earlier work
[30] = system: HepG2; set-up: method as in Jo SP, Kim JK, Lim YH. Planta Med. 2014 Aug;80(13):1067-71; details: HepG2 cancer cell line; ref Jo SP, Kim JK, Lim YH. Planta Med. 2014 Aug;80(13):1067-71; read-out: IC50, proliferation of HepG2; cited from earlier work

O=C(OC[C@H]1OC(OC(=O)c2cc(O)c(O)c(O)c2)[C@H](OC(=O)c2cc(O)c(O)c(O)c2)[C@@H](OC(=O)c2cc(O)c(O)c(O)c2)[C@@H]1OC(=O)c1cc(O)c(O)c(O)c1)c1cc(O)c(O)c(O)c1 (stereo partly drawn) [1,2,3,4,6-O-Pentagalloylglucose]
reduction of the HBsAg level [1]: 25%

CC(C)=CCc1cc2ccc(=O)oc2cc1O [7-demethylsuberosin]
IC50 [2]: 9.42 µM

C[C@@H]1OC(O[C@@H]2[C@@H](O)[C@H](OCCc3ccc(O)c(O)c3)O[C@H](CO[C@@H]3OC[C@@H](O)[C@H](O)[C@H]3O)[C@H]2OC(=O)/C=C/c2ccc(O)c(O)c2)[C@H](O)[C@H](O)[C@H]1O (stereo partly drawn) [Arenarioside]
GI50 [3]: 10 to 16 µM

C/C=C/C#CC#C/C=C/c1ccco1 [Atractylodin]
IC50 [4]: 39.1 µM | LD50 [5]: 1.83 µg/cm | repellency [6]: > 90%

CC(C)=CCC/C(C)=C/COc1ccc2ccc(=O)oc2c1 [Auraptene]
IC50 [7]: 345 µM

CC(C)c1cc2c(c(O)c1O)[C@@]13CCCC(C)(C)[C@@H]1C[C@@H]2OC3=O [Carnosol]
EC50 [8]: 12.5 µM

C[C@H]1COC2=C1C(=O)C(=O)c1c2ccc2c1CCCC2(C)C [Cryptotanshinone]
IC50 [9]: 4.6 µM | inhibition of STAT1 [10]: no inhibition | inhibition of STAT5 [11]: no inhibition

Oc1ccc(OC2CCCCO2)cc1 (stereo not drawn) [Deoxyarbutin]
IC50 [12]: 0.05 µM

CC1OC(OC2C(=O)c3c(O)cc(O)cc3OC2c2ccc(O)cc2)C(O)C(O)C1O (stereo not drawn) [Engeletin]
IC50 [13]: 1.16 µM | inhibition of PGE2 release, IC5 [14]: 19.6 µg/mL

C[C@]1(OC(=O)/C=C/c2ccccc2)C[C@@H](O)[C@]2(O)C=CO[C@@H](O[C@@H]3O[C@H](CO)[C@@H](O)[C@H](O)[C@H]3O)[C@@H]21 [Harpagoside]
inhibition of seed germination [15]: 1. Harpagoside has anti-inflammatory activity. 2. Harpagoside at 3 mM concentration, shows moderate inhibition of seed germination. 3. Harpagoside can inhibit lipopolysaccharide-induced mRNA levels and protein expression of cyclooxygenase-2 and inducible nitric oxide in HepG2 cells.

O=C1Nc2ccccc2/C1=C1/Nc2ccccc2C1=O [Indirubin]
IC50 [16]: ~5 µM | IC50 [17]: ~0.6 µM

C=C(C)[C@@H]1CC[C@]2(C)CC[C@]3(C)[C@H](CC[C@@H]4[C@@]5(C)CCC(=O)C(C)(C)[C@@H]5CC[C@]43C)[C@@H]12 [LUPENONE]
IC50 [18]: 15.1 µM

COc1cc2oc(-c3ccccc3)cc(=O)c2c(O)c1OC [MOSLOFLAVONE]
IC50 [19]: 0.71 µM | IC50 [20]: 7.8 µM

O=c1c(O)c(-c2ccc(O)cc2O)oc2cc(O)cc(O)c12 [Morin]
IC50 [21]: 2.33 µM

COc1cc2oc(-c3ccccc3)cc(=O)c2c(O)c1O [Negletein]
IC50 [22]: 3.89 µM

COc1cc(O)c2c(c1)C(=O)c1cc(C)cc(O)c1C2=O [Rheochrysidin]
IC50 [23]: 38.5 µM | Kd [24]: 26 µM

C[C@H]1CC[C@@]2(OC1)O[C@H]1C[C@H]3[C@@H]4CC[C@@H]5C[C@@H](O[C@@H]6O[C@H](CO)[C@H](O)[C@H](O)[C@H]6O[C@@H]6O[C@H](CO)[C@@H](O)[C@H](O)[C@H]6O)CC[C@]5(C)[C@H]4CC[C@]3(C)[C@H]1[C@@H]2C [Timosaponin AIII]
IC50 [25]: 10 µM | IC50 [26]: 2.5 µM | IC50 [27]: 6 µM

Rhapontigenin
IC50 [28]: 0.4 µM | IC50 [29]: 48 µM | IC50 [30]: 48 µM
